From PubChem BioAssay AID504713 (Southern Research Specialized Biocontainment Screening …, 2011)
Calls of active or inactive are those of the source. The rule behind the calls is not given here.

Tests used:
[1] = test system: mammalian cell cytotoxicity, viability, CC50; assay: mammalian cell cytotoxicity, cytotoxicity control, set 3 (AID 504713)
[2] = as above; conditions: mammalian cell cytotoxicity, viability, CC50; at 100 µM (top of the series)

Compound	CC50 [1]	viability [2]
Cc1ccc2oc(/N=C(\N)NC(=O)c3ccccc3)nc2c1	35.1 µM	
CCOc1ccc2[nH]c(C)cc2c1		93% (inactive)
Cc1ccc(OCC(=O)Nc2nnn(C)n2)c(C)c1		103% (inactive)
CCCOc1ccc2c(c1)c(C(C)=O)c(C)n2-c1ccccc1		97.2% (inactive)
O=C(CC12CC3CC(CC(C3)C1)C2)NCc1ccc(F)cc1		99.1% (inactive)
COc1ccc2[nH]c(C)cc2c1		103% (inactive)
N/C(=N\c1nc2ccccc2o1)NC(=O)c1ccccc1	19.3 µM	
CCOc1ccc2nc(NC(=O)c3cnccn3)sc2c1		80.3% (inactive)
N/C(=N\c1nc2ccccc2o1)NC(=O)c1ccccc1Br		87% (inactive)
O=C(Nc1nc2ccccc2[nH]1)c1cc2cc(Br)ccc2o1	41.7 µM	
COC(=O)c1c(C)[nH]c2ccc(Cl)cc12		80% (inactive)
CC(=O)c1c(C)n(-c2ccccc2)c2ccc(OS(=O)(=O)C(F)(F)F)cc12		92.2% (inactive)
Cc1cc(C)c(OCC(=O)Nc2nc3ccccc3[nH]2)c(C)c1		88.5% (inactive)
CCOC(=O)c1c(C)[nH]c2ccccc12		85.7% (inactive)
O=C(Nc1nc2ccccc2[nH]1)c1ccc(Cl)c(Cl)c1		90.6% (inactive)
N/C(=N\c1nc2ccccc2o1)NC(=O)c1ccc(F)cc1	57.3 µM	
S=C(Nc1ccccc1)Nc1ccc(Cl)cn1		107% (inactive)
COC(=O)c1c(C)[nH]c2ccccc12		82.6% (inactive)
Cc1cc2cc(F)ccc2[nH]1		102% (inactive)
COc1cccc(NC(=O)C2CC2)c1		90.2% (inactive)
O=C(COC(=O)C1CC1)c1c[nH]c2ccccc12		98.9% (inactive)
O=C(CSc1n[nH]c(=O)n1C1CC1)c1ccc2c(c1)OCCO2		104% (inactive)
CC(=O)c1c(C)n(-c2ccc(C)cc2)c2ccc(O)cc12		94.9% (inactive)
O=C(COC(=O)C1=COCCO1)Nc1ccc2c(c1)OCO2		94.5% (inactive)
CCOc1ccc2[nH]cc(C(=O)OC)c2c1		86.9% (inactive)
c1ccc(-c2cc(N3CCOCC3)nc3ccccc23)cc1	90.8 µM	
CC(Oc1ccc(Cl)cc1)C(=O)Nc1nc2ccccc2s1 (stereo not given)	92 µM	

Compound	CC50 [1]	viability [2]
COc1cccc(-c2ccc(-c3noc(-c4ccccc4F)n3)c(OC)n2)c1		91.7% (inactive)
O=C(OC(C(=O)Nc1ccc(Cl)cc1C(F)(F)F)c1ccccc1)C1=COCCO1 (stereo not given)		84.8% (inactive)
CN(NC(=O)c1c(Cl)cccc1Cl)c1cccc(Cl)n1		93.6% (inactive)
CC(=O)c1c(C)n(-c2ccccc2)c2ccc(O)cc12		85% (inactive)
CCOc1ccc2nc(NC(=O)COc3ccc(Cl)c(C)c3)sc2c1		112% (inactive)
CCOc1ccc2nc(NC(=O)COc3ccc(F)cc3)sc2c1		103% (inactive)
N/C(=N\c1nc2cc(Cl)ccc2o1)NC(=O)c1ccccc1	43.2 µM	
Cc1ccc(OCC(=O)Nc2ccc(Cl)cc2)c(C)c1		97.9% (inactive)
Cc1cccnc1NC(=S)NC(=O)c1cncc(Br)c1		108% (inactive)
CC(C)(C)c1ccc(OCC(=O)Nc2nc3ccccc3s2)cc1		98.8% (inactive)
Cc1ccc(OCC(=O)Nc2cccc3ncccc23)c(C)c1		92.8% (inactive)
O=C(COc1cccc2ccccc12)Nc1nc2ccccc2s1		82.9% (inactive)
Cc1ccccc1OCC(=O)Nc1ncn[nH]1		95.4% (inactive)
CCOc1ccc2c(c1)c(C(C)=O)c(C)n2-c1ccccc1Cl	85.7 µM	
COc1ccc2c(c1)c(C(C)=O)c(C)n2-c1ccccc1		96.1% (inactive)
CC(C)Cn1c2c(c(O)c(C(=O)Nc3nccs3)c1=O)CCCC2		100% (inactive)
O=C(COc1ccc2c3c(c(=O)oc2c1)CCC3)Nc1nc2ccccc2[nH]1		97% (inactive)
CCCN1CC(O)=C(c2nc3ccccc3s2)C1=N		88.5% (inactive)
Cc1ccc2sc(NC(=O)COc3ccccc3)nc2c1C	36.6 µM	
Oc1ccc2[nH]ccc2c1		106% (inactive)
CCOc1ccc2[nH]ccc2c1		97.9% (inactive)
Cc1ccccc1OCC(=O)Nc1noc(-c2ccccc2)n1		100% (inactive)
O=C(Nc1ccccc1)Nc1csc2ccccc12	76.6 µM	
Cc1cc(C)c(OCC(=O)Nc2nc3ccccc3s2)c(Cl)c1		98.1% (inactive)
CCOc1ccc2c(ccn2-c2ccccc2)c1		99.9% (inactive)
COc1ccc2nc(NC(=O)COc3c(C)cc(C)cc3C)sc2c1		94.5% (inactive)
CCOc1ccc2nc(NC(=O)Cc3ccc(OC)cc3)sc2c1		100% (inactive)

Compound	CC50 [1]	viability [2]
c1ccc(OCc2nnc(-c3ccccc3)o2)cc1		95.4% (inactive)
N/C(=N\c1nc2ccccc2o1)NC(=O)C1CC1		83% (inactive)
N/C(=N\c1nc2ccccc2o1)NC(=O)c1ccccc1F		99.9% (inactive)
CCOC(=O)COc1nc(-c2ccc(Cl)cc2)cc(-c2ccco2)c1C#N		103% (inactive)
COc1ccc2nc(NC(=O)c3oc4ccccc4c3C)sc2c1		94.4% (inactive)
Cc1ccc(OCC(=O)Nc2ccc3c4c(cccc24)CC3)c(C)c1		80.3% (inactive)
c1ccc(Nc2ncnc3c2oc2ccccc23)cc1		88% (inactive)
CC(=O)c1c(C)n(-c2ccccc2)c2ccccc12		98.2% (inactive)
Cc1ccc(OCC(=O)Nc2nc3ccc(F)cc3s2)cc1		103% (inactive)
O=C(COc1ccccc1)Nc1nc2ccccc2s1		104% (inactive)
CCOc1ccc2c(c1)cc(C)n2-c1ccccc1		95.5% (inactive)
Cc1ccc(OCC(=O)Nc2nc3c(Cl)cccc3s2)cc1		108% (inactive)
COc1ccc2c(c1)cc(C)n2-c1ccccc1		92.9% (inactive)
Cc1cc(C)c(OCC(=O)Nc2nc3ccc(C)cc3s2)c(C)c1		97.6% (inactive)
Cc1ccc(OC(C)C(=O)Nc2ncccn2)c(C)c1 (stereo not given)		96.2% (inactive)
O=C(COc1ccc(Cl)cc1)Nc1nc2ccc(F)cc2s1		96.1% (inactive)
CCOc1ccc2nc(NC(=O)C3(c4ccccc4)CCCC3)sc2c1	87.6 µM	
CC(=O)c1c(C)n(-c2cccc(Cl)c2)c2ccc(O)cc12		89% (inactive)
Cc1cccc(C)c1OCC(=O)Nc1nc2ccccc2s1		93.4% (inactive)
Cc1ccc(C(C)C)c(OCC(=O)Nc2nc3ccccc3s2)c1		92% (inactive)
Cc1ccccc1OCC(=O)Nc1ncccn1		106% (inactive)
Cc1ccc(OCC(=O)Nc2cccc3c(NC(=O)COc4ccc(C)cc4C)cccc23)c(C)c1		100% (inactive)
CCOc1ccc2nc(NC(=O)COc3ccccc3)sc2c1		86% (inactive)
COC(=O)c1ccc2nc(NC(=O)COc3ccccc3)sc2c1		99.9% (inactive)
Cc1ccc(OCC(=O)Nc2cccc3ccccc23)c(C)c1		93.3% (inactive)
O=C(O)CCC(=O)Nc1nc2ccccc2s1		102% (inactive)
O=C(Cc1ccccc1Cl)Nc1nc2ccccc2[nH]1		100% (inactive)

Compound	CC50 [1]	viability [2]
CC(=O)Nc1ccc2nc(NC(=O)COc3ccccc3)sc2c1		96.2% (inactive)
Cc1cc2cc(O)ccc2[nH]1		103% (inactive)
CCc1ccc2nc(/N=C(\N)NC(=O)c3ccccc3)nc(C)c2c1		94.8% (inactive)
COc1ccc(Cl)cc1C(=O)Nc1nc2ccccc2[nH]1	60.5 µM	
COc1ccc2nc(NC(=O)COc3ccccc3C(C)C)sc2c1		89.6% (inactive)
Cc1ccccc1OCC(=O)Nc1nnn(C)n1		95.7% (inactive)
O=C(COc1ccccc1Cl)Nc1nc2ccccc2s1		92.2% (inactive)
O=C(Cc1csc(-c2ccccc2F)n1)Nc1nc2ccccc2[nH]1		105% (inactive)
Cc1onc(-c2c(Cl)cccc2Cl)c1/C(N)=N/OC(=O)C1CC1		107% (inactive)
CCC(CC)c1nnc(NC(=O)c2ccc(N3CCCCC3)c([N+](=O)[O-])c2)s1		96.7% (inactive)
CC(=O)c1c(C)n(-c2ccccc2C)c2ccc(O)cc12		95.5% (inactive)
COc1ccc(C(=O)Nc2ccc3nc(N4CCCCC4)cc(C)c3c2)c(OC)c1		96.5% (inactive)
COc1cccc(NC(=S)Nc2cc(C)cc(C)n2)c1		100% (inactive)
COc1ccc2nc(NC(=O)COc3ccc(Cl)cc3)sc2c1		95.2% (inactive)
Cc1cc2ccccc2n1-c1ccccc1		93.4% (inactive)
CCOc1ccc2nc(NC(=O)COc3ccc(OC)cc3)sc2c1		102% (inactive)
CCOc1ccc(NC(=O)COc2ccc(C)cc2C)cc1		97.5% (inactive)
Cc1cc2cc(F)ccc2n1-c1ccccc1		93.3% (inactive)
COc1ccc2nc(NC(=O)COc3ccccc3)sc2c1		109% (inactive)
CCOC(=O)c1cnc2cc(-c3ccc(C(C)(C)C)cc3)nn2c1N		94.4% (inactive)
CCOc1ccc2c(c1)c(C(C)=O)c(C)n2Cc1ccco1		97.1% (inactive)
CC(=O)Nc1ccc2nc(NC(=O)Cc3ccccc3)sc2c1		95.1% (inactive)
CCOc1ccc2c(c1)c(C(C)=O)c(C)n2-c1ccccc1C	90.1 µM	
COc1ccc2nc(NC(=O)COc3ccc(C)cc3)sc2c1	87.4 µM	
